Measured values taken from patent publication US10933074B2, “Methods for improving the gastrointestinal tolerance of food and beverage products comprising sweet, low-digestible carbohydrates” (Tate & Lyle Ingredients Americas LLC, priority 2015, dated 2021).

Tested on: volunteers
Design: species or system human
Details: in vivo
Description: In this Example, subjects tested 4 different beverages, consumed in the morning with at least one week washout between test days. The beverages were consumed on an empty stomach, and there was instruction for subjects to wait 2 hours before having any other food. The primary outcome was the total gastrointestinal symptom scores over 24-hours for loose stool GI symptom derived from a GI symptoms rating diary. The 4 test beverages (8 oz./236.6 ml) were flavoured with a strawberry mix and contained: 1) 25 g of D-allulose; 2) 25 g of D-allulose and 25 g of D-glucose; 3) 25 g of D-allulose and 1 g of beta-glucan fiber; or 4) 25 g of sucrose. […] On the day of the test, the subjects followed the below set of instructions: • 1. Testing start times begin when you start consuming the drink; record date and time you begin on the diary. • 2. Consume the test drink at the same time each week. • a. Consume the entire drink 8 oz. (236.6 ml) drink in under 15 minutes. • b. Refill the drink container with water and consume as a chaser. • c. You may have additional water after 60 minutes as desired. • 3. Record GI symptom scores at 2, 4 and 24-hours after starting drink consumption. • 4. You may eat a snack or breakfast 2 hours after the test drink. • 5. Record all bowel movements and the Bristol Stool type during the 24-hour observation period. • 6. Resume normal food consumption for the day; however avoid foods which you know may cause gastric upset or gas for the 24-hour observation period. […] The Bristol Stool test scores were scored from 1-7. […]

For O=C(CO)[C@H](O)[C@H](O)[C@H](O)CO [D-allulose], the “number of people reporting symptoms” value was “greatest”, the “order of softer stools” value was “allulose>allulose+beta-glucan>allulose+D-glucose>sucrose” and the “stool softening (Bristol Stool test score, 24 hour average)” value was “softening effect”.
